# From patent publication US20110152267A1, “Compositions and Methods for Treating Hyperproliferative Disorders” (Texas Tech University System, priority 2009, published 2011)
# Legend:
# Format in all cases: cell-based, human
# [1] = tested on: OVCAR-8 ovarian adenocarcinoma cell line; assay: DIMSCAN cytotoxicity, fenretinide + L-threo-sphinganines 3:1 (Example B15); parameters: key to CI (Combination Index): Chou-Talalay CI: <0.9 synergy, 0.9-1.1 additive, >1.1 antagonism; conditions: 96 h
# Description: (§1) Cytotoxicity Assay—Once again, cytotoxicity is determined using the DIMSCAN assay system (R. Proffitt et al., Cytometry 24, 204-213 (1996); T. Frgala et al., Mol Cancer Ther. 6:886-97, 2007). The system employs digital imaging microscopy to quantify viable cells, which selectively accumulate fluorescein diacetate to become brightly fluorescent. The system is capable of measuring cytotoxicity over a 4-5 log dynamic range by quenching the residual fluorescence of dead and dying cells with eosin Y and quantifying the total fluorescence of viable cells using digital thresholding. Measured fluorescence is directly proportionate to the number of viable cells. A comparison of the total fluorescence of a drug-treated cell population to the fluorescence of a similar number of untreated cells yields a survival fraction. In brief, 2000 to 10,000 cells/well (depending on size and growth rates) are replicate plated into 60 wells of a 96-well tissue culture plate in 0.1 mL of whole medium and allowed to attach overnight. Drug(s) are then added in 0.05 mL of whole medium to the final concentrations indicated. Drugs (fenretinide, and various chain length L-threo-sphinganines) were tested both as single agents and in a 3:1 ratio of fenretinide:sphinganine. C18-L-threo-sphinganine, or “safingol,” was also tested and results shown for reference. There are 12 wells treated per drug concentration. Twelve wells receive drug vehicle-only to the appropriate final concentration and serve as controls for the plate. Cells are incubated for 96 hours at 37° C. in ambient air with 5% CO2. Fluorescein diacetate is then added to each well in 0.05 mL media to a final concentration of 8 microgram/mL. Cells are incubated for a further 15 minutes at 37° C. and 0.03 mL of 0.5% eosin Y is added to each well. Total fluorescence of viable cells is then measured by digital imaging microscopy. Results were graphed as the ratio of the fluoresecence of drug-treated wells to non-drug treated control wells (i.e., Survival Fraction). All tests were performed at least twice. Representative results are shown.
# (§2) The Combination Index (CI) is a term to describe mathematical modeling of the pharmacologic effects on cytotoxicity (cell death) of two drugs in combination based. Cytotoxic “synergy” is defined as a cell death affect which is greater than would be expected from a simple product of the single agent cytotoxicities alone (i.e. an “additive” effect). By Chou-Talalay analysis, a CI<0.9 on a Fraction Affected (“Fa”, i.e. fraction of cells killed) indicates synergy, with smaller numbers indicating greater synergy; a CI of 0.9-1.1 signifies an additive or near-additive effect; and a CI>1.1 means the drug combination is antagonistic.
# Fenretinide and L-threo-sphinganines tested in human ovarian adenocarcinoma (ovarian cancer) cell line, OVCAR-8.
# [2] = tested on: HT-29 colorectal adenocarcinoma cell line; assay: DIMSCAN cytotoxicity, fenretinide + L-threo-sphinganines 3:1 (Example B10); conditions: 96 h
# Description: as §1, §2
# Fenretinide and L-threo-sphinganines tested in human colorectal adenocarcinoma (colon cancer) cell line, HT-29.
# [3] = tested on: SJ-G2 Glioblastoma cell line; assay: DIMSCAN cytotoxicity, fenretinide + L-threo-sphinganines 3:1 (Example B8); conditions: 96 h
# Description: as §1, §2
# Fenretinide and L-threo-sphinganines tested in human Glioblastoma (brain cancer) cell line, SJ-G2.
# [4] = tested on: U-118 Glioblastoma cell line; assay: DIMSCAN cytotoxicity, fenretinide + L-threo-sphinganines 3:1 (Example B5); parameters: key to CI (Combination Index): CI<0.9 synergy, 0.9-1.1 additive, >1.1 antagonistic; conditions: U-118 MG, 96 h
# Description: as §1, §2
# Fenretinide and L-threo-sphinganines tested in human Glioblastoma (brain cancer) cell line, U-118.
# [5] = tested on: U-266 Multiple Myeloma cell line; assay: DIMSCAN cytotoxicity, fenretinide + L-threo-sphinganines 3:1 (Example B3); conditions: 96 h
# Description: as §1, §2
# Fenretinide and L-threo-sphinganines tested in human Multiple Myeloma (a cancer of the blood and bone marrow) cell line, U-266.
# [6] = tested on: OE-19 esophageal adenocarcinoma cell line; assay: DIMSCAN cytotoxicity, fenretinide + L-threo-sphinganines 3:1 (Example B19)
# Description: as §1, §2
# (§3) Fenretinide and L-threo-sphinganines tested in human esophageal adenocarcinoma (esophagus cancer) cell lines, OE-19 and OE-33.
# [7] = tested on: OE-33 esophageal adenocarcinoma cell line; assay: as above
# Description: as §1, §2, §3
# [8] = 4-HPR 1.5 μM + L-threo-sphinganine 0.5 μM
# [9] = 4-HPR 3 μM + L-threo-sphinganine 1 μM
# [10] = 4-HPR 6 μM + L-threo-sphinganine 2 μM
# [11] = 4-HPR 9 μM + L-threo-sphinganine 3 μM
smiles,measurement,setting,value
CCCCCCCCCCCCCCCCCC[C@H](O)[C@@H](N)CO [C21],CI (Combination Index),[1]; [8],0.1
same,Fa (fraction affected),[1]; [8],0.626
same,CI (Combination Index),[1]; [9],0.1
same,Fa (fraction affected),[1]; [9],0.870
same,CI (Combination Index),[1]; [10],0.1
same,Fa (fraction affected),[1]; [10],0.977
same,CI (Combination Index),[1]; [11],0.2
same,Fa (fraction affected),[1]; [11],0.975
same,CI (Combination Index),[2]; [8],1.2
same,Fa (fraction affected),[2]; [8],0.149
same,CI (Combination Index),[2]; [9],1.2
same,Fa (fraction affected),[2]; [9],0.630
same,CI (Combination Index),[2]; [10],1.8
same,Fa (fraction affected),[2]; [10],0.857
same,CI (Combination Index),[2]; [11],2.3
same,Fa (fraction affected),[2]; [11],0.918
same,CI (Combination Index),[3]; [8],1.5
same,Fa (fraction affected),[3]; [8],0.118
same,CI (Combination Index),[3]; [9],1.9
same,Fa (fraction affected),[3]; [9],0.299
same,CI (Combination Index),[3]; [10],1.5
same,Fa (fraction affected),[3]; [10],0.809
same,CI (Combination Index),[3]; [11],0.5
same,Fa (fraction affected),[3]; [11],0.995
same,CI (Combination Index),[4]; [8],1.3
same,Fa (fraction affected),[4]; [8],0.588
same,CI (Combination Index),[4]; [9],1.5
same,Fa (fraction affected),[4]; [9],0.836
same,CI (Combination Index),[4]; [10],0.6
same,Fa (fraction affected),[4]; [10],0.995
same,CI (Combination Index),[4]; [11],0.5
same,Fa (fraction affected),[4]; [11],0.999
same,CI (Combination Index),[5]; [8],1.4
same,Fa (fraction affected),[5]; [8],0.225
same,CI (Combination Index),[5]; [9],1.5
same,Fa (fraction affected),[5]; [9],0.658
same,CI (Combination Index),[5]; [10],0.6
same,Fa (fraction affected),[5]; [10],0.996
same,CI (Combination Index),[5]; [11],>0.1
same,Fa (fraction affected),[5]; [11],1
CCCCCCCCCCC[C@H](O)[C@@H](N)CO [C14],CI (Combination Index),[1]; [8],0.1
same,Fa (fraction affected),[1]; [8],0.696
same,CI (Combination Index),[1]; [9],0.1
same,Fa (fraction affected),[1]; [9],0.860
same,CI (Combination Index),[1]; [10],0.1
same,Fa (fraction affected),[1]; [10],0.978
same,CI (Combination Index),[1]; [11],0.1
same,Fa (fraction affected),[1]; [11],0.988
same,CI (Combination Index),[2]; [8],1.0
same,Fa (fraction affected),[2]; [8],0.215
same,CI (Combination Index),[2]; [9],1.3
same,Fa (fraction affected),[2]; [9],0.598
same,CI (Combination Index),[2]; [10],1.8
same,Fa (fraction affected),[2]; [10],0.822
same,CI (Combination Index),[2]; [11],1.4
same,Fa (fraction affected),[2]; [11],0.982
same,CI (Combination Index),[3]; [8],1.3
same,Fa (fraction affected),[3]; [8],0.103
same,CI (Combination Index),[3]; [9],1.3
same,Fa (fraction affected),[3]; [9],0.307
same,CI (Combination Index),[3]; [10],1.4
same,Fa (fraction affected),[3]; [10],0.575
same,CI (Combination Index),[3]; [11],1.0
same,Fa (fraction affected),[3]; [11],0.845
same,CI (Combination Index),[4]; [8],1.4
same,Fa (fraction affected),[4]; [8],0.318
same,CI (Combination Index),[4]; [9],1.2
same,Fa (fraction affected),[4]; [9],0.586
same,CI (Combination Index),[4]; [10],1.2
same,Fa (fraction affected),[4]; [10],0.814
same,CI (Combination Index),[4]; [11],0.4
same,Fa (fraction affected),[4]; [11],0.988
same,CI (Combination Index),[5]; [8],0.9
same,Fa (fraction affected),[5]; [8],0.163
same,CI (Combination Index),[5]; [9],1.1
same,Fa (fraction affected),[5]; [9],0.315
same,CI (Combination Index),[5]; [10],1.0
same,Fa (fraction affected),[5]; [10],0.687
same,CI (Combination Index),[5]; [11],1.3
same,Fa (fraction affected),[5]; [11],0.76
CCCCCCCCCCCC[C@H](O)[C@@H](N)CO [C15],CI (Combination Index),[1]; [8],0.1
same,Fa (fraction affected),[1]; [8],0.668
same,CI (Combination Index),[1]; [9],0.1
same,Fa (fraction affected),[1]; [9],0.854
same,CI (Combination Index),[1]; [10],0.1
same,Fa (fraction affected),[1]; [10],0.977
same,CI (Combination Index),[1]; [11],0.2
same,Fa (fraction affected),[1]; [11],0.977
same,CI (Combination Index),[2]; [8],2.0
same,Fa (fraction affected),[2]; [8],0.204
same,CI (Combination Index),[2]; [9],0.8
same,Fa (fraction affected),[2]; [9],0.660
same,CI (Combination Index),[2]; [10],1.1
same,Fa (fraction affected),[2]; [10],0.859
same,CI (Combination Index),[2]; [11],0.8
same,Fa (fraction affected),[2]; [11],0.976
same,CI (Combination Index),[3]; [8],1.1
same,Fa (fraction affected),[3]; [8],0.135
same,CI (Combination Index),[3]; [9],1.3
same,Fa (fraction affected),[3]; [9],0.282
same,CI (Combination Index),[3]; [10],1.3
same,Fa (fraction affected),[3]; [10],0.620
same,CI (Combination Index),[3]; [11],1.0
same,Fa (fraction affected),[3]; [11],0.846
same,CI (Combination Index),[4]; [8],0.4
same,Fa (fraction affected),[4]; [8],0.371
same,CI (Combination Index),[4]; [9],0.5
same,Fa (fraction affected),[4]; [9],0.577
same,CI (Combination Index),[4]; [10],0.4
same,Fa (fraction affected),[4]; [10],0.847
same,CI (Combination Index),[4]; [11],0.1
same,Fa (fraction affected),[4]; [11],0.989
same,CI (Combination Index),[5]; [8],1.2
same,Fa (fraction affected),[5]; [8],0.085
same,CI (Combination Index),[5]; [9],1.5
same,Fa (fraction affected),[5]; [9],0.241
same,CI (Combination Index),[5]; [10],1.2
same,Fa (fraction affected),[5]; [10],0.697
same,CI (Combination Index),[5]; [11],0.9
same,Fa (fraction affected),[5]; [11],0.929
CCCCCCCCC[C@H](O)[C@@H](N)CO [C12],CI (Combination Index),[1]; [8],0.3
same,Fa (fraction affected),[1]; [8],0.382
same,CI (Combination Index),[1]; [9],0.5
same,Fa (fraction affected),[1]; [9],0.445
same,CI (Combination Index),[1]; [10],0.6
same,Fa (fraction affected),[1]; [10],0.634
same,CI (Combination Index),[1]; [11],0.8
same,Fa (fraction affected),[1]; [11],0.704
same,CI,[6]; [8],1.4
same,Fa,[6]; [8],0.345
same,CI,[6]; [9],2.9
same,Fa,[6]; [9],0.325
same,CI,[6]; [10],5.5
same,Fa,[6]; [10],0.506
same,CI,[6]; [11],>>1
same,Fa,[6]; [11],0.632
same,CI,[7]; [8],1.0
same,Fa,[7]; [8],0.376
same,CI,[7]; [9],1.0
same,Fa,[7]; [9],0.618
same,CI,[7]; [10],1.3
same,Fa,[7]; [10],0.758
same,CI,[7]; [11],1.1
same,Fa,[7]; [11],0.925
same,CI (Combination Index),[2]; [8],1.0
same,Fa (fraction affected),[2]; [8],0.217
same,CI (Combination Index),[2]; [9],1.2
same,Fa (fraction affected),[2]; [9],0.642
same,CI (Combination Index),[2]; [10],1.3
same,Fa (fraction affected),[2]; [10],0.951
same,CI (Combination Index),[2]; [11],1.6
same,Fa (fraction affected),[2]; [11],0.975
same,CI (Combination Index),[3]; [8],0.8
same,Fa (fraction affected),[3]; [8],0.199
same,CI (Combination Index),[3]; [9],0.7
same,Fa (fraction affected),[3]; [9],0.530
same,CI (Combination Index),[3]; [10],0.8
same,Fa (fraction affected),[3]; [10],0.764
same,CI (Combination Index),[3]; [11],0.6
same,Fa (fraction affected),[3]; [11],0.931
same,CI (Combination Index),[4]; [8],1.5
same,Fa (fraction affected),[4]; [8],0.226
same,CI (Combination Index),[4]; [9],1.0
same,Fa (fraction affected),[4]; [9],0.671
same,CI (Combination Index),[4]; [10],0.3
same,Fa (fraction affected),[4]; [10],0.988
same,CI (Combination Index),[4]; [11],0.2
same,Fa (fraction affected),[4]; [11],0.996
same,CI (Combination Index),[5]; [8],0.8
same,Fa (fraction affected),[5]; [8],0.176
same,CI (Combination Index),[5]; [9],0.9
same,Fa (fraction affected),[5]; [9],0.326
same,CI (Combination Index),[5]; [10],0.9
same,Fa (fraction affected),[5]; [10],0.697
same,CI (Combination Index),[5]; [11],1.2
same,Fa (fraction affected),[5]; [11],0.748
